According to ChEMBL document CHEMBL4715778, “Sobetirome prodrug esters with enhanced blood-brain barrier permeability” (Bioorg Med Chem, 2016):

Assays:
Type in all cases: ADME, organism-based
[1] = Prodrug conversion in C57Bl/6 mouse brain assessed as increase in sobetirome level at 1.5 micromol/kg, ip after 30 mins by LC-MS/MS analysis relative to sobetirome control; details: in vivo, 0.5 h, dose 1.5 µmol/kg
[2] = AUC (0 to t) in C57Bl/6 mouse serum assessed as sobetirome level at 1.5 microM/Kg, ip upto 8 hrs by LC-MS/MS analysis; parameters: route intraperitoneal, dose 1.5 µM/Kg, time <=8; details: in vivo
[3] = AUC (0 to t) in C57Bl/6 mouse brain assessed as sobetirome level at 1.5 microM/Kg, ip upto 8 hrs by LC-MS/MS analysis; parameters: route intraperitoneal, dose 1.5 µM/Kg, time <=8; details: in vivo
[4] = AUC (0 to t) in C57Bl/6 mouse liver assessed as sobetirome level at 1.5 microM/Kg, ip upto 8 hrs by LC-MS/MS analysis; parameters: route intraperitoneal, dose 1.5 µM/Kg, time <=8; details: in vivo
[5] = Ratio of AUC (0 to t) in brain to serum in C57Bl/6 mouse assessed as sobetirome level at 1.5 microM/Kg, ip upto 8 hrs by LC-MS/MS analysis
[6] = Ratio of AUC (0 to t) in brain to liver in C57Bl/6 mouse assessed as sobetirome level at 1.5 microM/Kg, ip upto 8 hrs by LC-MS/MS analysis; details: in vivo
[7] = Ratio of AUC in brain to serum in C57Bl/6 mouse assessed as sobetirome level at 1.5 microM/Kg, ip upto 8 hrs by LC-MS/MS analysis
[8] = Ratio of AUC in brain to liver in C57Bl/6 mouse assessed as sobetirome level at 1.5 microM/Kg, ip upto 8 hrs by LC-MS/MS analysis; details: in vivo
[9] = AUC (0 to t) in C57Bl/6 mouse serum at 1.5 microM/Kg, ip upto 8 hrs by LC-MS/MS analysis; parameters: route intraperitoneal, dose 1.5 µM/Kg, time <=8; details: in vivo
[10] = AUC (0 to t) in C57Bl/6 mouse brain at 1.5 microM/Kg, ip upto 8 hrs by LC-MS/MS analysis; parameters: route intraperitoneal, dose 1.5 µM/Kg, time <=8; details: in vivo
[11] = AUC (0 to t) in C57Bl/6 mouse liver at 1.5 microM/Kg, ip upto 8 hrs by LC-MS/MS analysis; parameters: route intraperitoneal, dose 1.5 µM/Kg, time <=8; details: in vivo
[12] = Ratio of AUC in C57Bl/6 mouse brain to serum at 1.5 microM/Kg, ip upto 8 hrs by LC-MS/MS analysis; details: read-out: Ratio AUC
[13] = Ratio of AUC in C57Bl/6 mouse brain to liver at 1.5 microM/Kg, ip upto 8 hrs by LC-MS/MS analysis; details: in vivo
[14] = Half life in iv dosed mouse; details: in vivo

| SMILES | Drug metabolism [1] | also measured |
| --- | --- | --- |
| Cc1cc(OCC(=O)OCCN2CCOCC2)cc(C)c1Cc1ccc(O)c(C(C)C)c1 | Metabolite_Notdetected | – |
| Cc1cc(OCC(=O)OCCN)cc(C)c1Cc1ccc(O)c(C(C)C)c1.Cl | – | fold change (FC) [1]: 2; AUC [2]: 367.8 ng·h/g; AUC [3]: 17.1 ng·h/g; AUC [4]: 1897 ng·h/g; Ratio AUC [5]: 0.05; Ratio AUC [6]: 0.009; fold change (FC) [7]: 7; fold change (FC) [8]: 4 |
| Cc1cc(OCC(=O)OCCN(C)C)cc(C)c1Cc1ccc(O)c(C(C)C)c1 | Metabolite_Notdetected | – |
| Cc1cc(OCC(=O)OC2CCNCC2)cc(C)c1Cc1ccc(O)c(C(C)C)c1 | Metabolite_Notdetected | – |
| Cc1cc(OCC(=O)OC2CCCNC2)cc(C)c1Cc1ccc(O)c(C(C)C)c1 (stereo not given) | Metabolite_Notdetected | – |
| Cc1cc(OCC(=O)Oc2ccc(C[C@H](N)C(=O)O)cc2)cc(C)c1Cc1ccc(O)c(C(C)C)c1.Cl | Metabolite_Notdetected | – |
| Cc1cc(OCC(=O)OC[C@H]2CCCN2)cc(C)c1Cc1ccc(O)c(C(C)C)c1 | Metabolite_Notdetected | – |
| Cc1cc(OCC(=O)OC[C@H]2O[C@@H](O)[C@H](O)[C@@H](O)[C@@H]2O)cc(C)c1Cc1ccc(O)c(C(C)C)c1 | Metabolite_Notdetected | – |
| Cc1cc(OCC(=O)OC2CNC2)cc(C)c1Cc1ccc(O)c(C(C)C)c1 | Metabolite_Notdetected | – |
| Cc1cc(OCC(=O)OCCNC(=O)[C@@H](N)CCCCN)cc(C)c1Cc1ccc(O)c(C(C)C)c1.Cl.Cl | Metabolite_Notdetected | – |
| CCOC(=O)COc1cc(C)c(Cc2ccc(O)c(C(C)C)c2)c(C)c1 | Metabolite_Notdetected | – |
| Cc1cc(OCC(=O)OCC2CCCCN2)cc(C)c1Cc1ccc(O)c(C(C)C)c1 (stereo not given) | Metabolite_Notdetected | – |
| Cc1cc(OCC(=O)OCC[N+](C)(C)C)cc(C)c1Cc1ccc(O)c(C(C)C)c1.[Br-] | Metabolite_Notdetected | – |
| Cc1cc(OCC(=O)OC2(C)CNC2)cc(C)c1Cc1ccc(O)c(C(C)C)c1 | Metabolite_Notdetected | – |
| Cc1cc(OCC(=O)OCCNC(=O)[C@@H](N)C(C)C)cc(C)c1Cc1ccc(O)c(C(C)C)c1.Cl | Metabolite_Notdetected | – |
| Cc1cc(OCC(=O)OC2CN(C)C2)cc(C)c1Cc1ccc(O)c(C(C)C)c1 | Metabolite_Notdetected | – |
| Cc1cc(OCC(=O)O)cc(C)c1Cc1ccc(O)c(C(C)C)c1 [SOBETIROME] | Metabolite_Notdetected | AUC [9]: 681.7 ng·h/g; AUC [10]: 10.8 ng·h/g; AUC [11]: 2933 ng·h/g; Kp at 8 h [12]: 0.02; Ratio AUC [13]: 0.004; half-life [14]: 1.3 h |
